Experimental data from ChEMBL document CHEMBL5370659 (J Med Chem, 2023).
The source made the active and inactive calls. The calls are words filed in the database; no cut-off is given here.

How the values were obtained:
[1] = system: Mus musculus; assay: Effect on total travelled distance of C57BL/6N mouse at 100 mg/kg, po treated for 14 days by locomotor activity test; format: functional, organism-based; conditions: time 14.0 day
[2] = system: MC-38; assay: Antitumor activity against mouse MC-38 cells subcutaneously transplanted in C57BL/6N mouse assessed as reduction in absolute tumor volume at 50 mg/kg, po bid measured on day 13 relative to control; format: functional; conditions: MC-38, 312 h, route sc, time 13 day
[3] = Inhibition of BCRP in human Caco-2 cells seeded in polyethylene membranes assessed as permeation in presence or absence of E3S measured for 2 hrs by LC-MS/MS analysis based transporter assay; format: cell-based
[4] = system: Mus musculus; assay: Effect on hedonic component behavior in C57BL/6N mouse at 10 mg/kg, po treated for 14 days by sucrose preference test; format: functional, organism-based; conditions: time 14.0 day
[5] = target: T1, Tryptophan 5-hydroxylase 1 (Homo sapiens, UniProt P17752); assay: Binding affinity to […] (unknown origin) assessed as equilibrium dissociation constant by surface plasmon resonance analysis
T1 sequence (P17752 whole entry): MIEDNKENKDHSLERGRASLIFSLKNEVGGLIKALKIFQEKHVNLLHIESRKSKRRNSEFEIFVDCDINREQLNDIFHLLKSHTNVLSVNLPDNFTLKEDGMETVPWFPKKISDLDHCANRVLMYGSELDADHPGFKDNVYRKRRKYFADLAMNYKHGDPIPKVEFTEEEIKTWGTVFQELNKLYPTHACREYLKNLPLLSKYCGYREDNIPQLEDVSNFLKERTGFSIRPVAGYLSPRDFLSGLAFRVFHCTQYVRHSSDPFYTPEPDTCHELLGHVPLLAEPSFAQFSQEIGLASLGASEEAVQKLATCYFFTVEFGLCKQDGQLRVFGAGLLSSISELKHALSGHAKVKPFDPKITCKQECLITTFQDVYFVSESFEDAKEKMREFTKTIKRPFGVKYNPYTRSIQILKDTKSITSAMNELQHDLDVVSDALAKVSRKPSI

[6] = MRT (0 to infinitive) in Sprague-Dawley rat at 20 mg/kg, po measured upto 1440 mins by LC-MS/MS analysis; format: ADME, organism-based; conditions: in vivo
[7] = Tlast in Sprague-Dawley rat at 50 mg/kg, po measured upto 1440 mins by LC-MS/MS analysis; format: ADME, organism-based; conditions: in vivo, 24 h
[8] = Cmax in Sprague-Dawley rat at 50 mg/kg, po measured upto 1440 mins by LC-MS/MS analysis; format: ADME, organism-based; design: time < 1440 min, dose 50 mg/kg, route po; conditions: in vivo
[9] = Drug uptake in Sprague-Dawley rat brain at 50 mg/kg, po measured at 2 hrs by LC-MS/MS analysis; format: ADME, organism-based; conditions: read-out: Drug uptake
[10] = system: Mus musculus; assay: Effect on total travelled distance of C57BL/6N mouse at 20 mg/kg, po treated for 14 days by locomotor activity test; format: functional, organism-based; conditions: time 14.0 day
[11] = Reduction in serotonin level in C57BL/6N mouse duodenum at 15 mg/kg, po bid treated for 7 days by HPLC analysis relative to control; format: functional; conditions: 168 h, time 7 day
[12] = target: T2, Tryptophan 5-hydroxylase 1 (Homo sapiens) (UniProt P17752); assay: Binding affinity to […] (unknown origin) assessed as association rate constant by surface plasmon resonance analysis
T2 sequence (whole entry): T1 sequence (P17752 whole entry)

[13] = Brain homogenate binding in mouse; format: ADME, tissue-based
[14] = Tlast in CD-1 (ICR) mouse at 50 mg/kg, po measured upto 1440 mins by LC-MS/MS analysis; format: ADME, organism-based; conditions: in vivo, 24 h
[15] = AUMCExtra in Sprague-Dawley rat at 20 mg/kg, po measured upto 1440 mins by LC-MS/MS analysis; format: ADME, organism-based; conditions: in vivo, 24 h
[16] = system: Mus musculus; assay: Effect on C57BL/6N mouse assessed as brain serotonin turnover measuring 5-HT/TRP ratio at 1.5 to 50 mg/kg, po bid treated for 6 to 7 days; format: functional, organism-based; conditions: dose 1.5-50 mg/kg, time 6-7 day
[17] = AUCExtra in Sprague-Dawley rat at 50 mg/kg, po measured upto 1440 mins by LC-MS/MS analysis; format: ADME, organism-based; conditions: in vivo, 24 h
[18] = Plasma concentration in CD-1 (ICR) mouse at 50 mg/kg measured 2 hrs by LC-MS/MS analysis; format: ADME, organism-based
[19] = Apparent permeability across basal to apical side in human Caco-2 cells at pH 6.5/7.4 measured at 5 uM by LC-MS/MS analysis; format: ADME, cell-based; conditions: Caco-2, pH 6.5
[20] = Oral bioavailability in Sprague-Dawley rat at 50 mg/kg measured upto 1440 mins by LC-MS/MS analysis; format: ADME, organism-based; conditions: in vivo
[21] = AUC (0 to infinitive) in Sprague-Dawley rat at 50 mg/kg, po measured upto 1440 mins by LC-MS/MS analysis; format: ADME, organism-based; design: dose 50 mg/kg, time < 1440 min, route po; conditions: in vivo
[22] = Plasma protein binding in rat; format: ADME, cell-free; conditions: read-out: PPB (converted)
[23] = MRT (0 to infinitive) in CD-1 (ICR) mouse at 50 mg/kg, po measured upto 1440 mins by LC-MS/MS analysis; format: ADME, organism-based; conditions: in vivo
[24] = Permeability across basal to apical side in MDCK-MDR1 cells at pH 6.5/7.4 measured at 5 uM by LC-MS/MS analysis; format: ADME, cell-based, Canis lupus familiaris; conditions: dog, MDCK-MDR1, pH 6.5
[25] = Drug uptake in CD-1 (ICR) mouse brain at 50 mg/kg measured 0.5 hrs by LC-MS/MS analysis; format: ADME, organism-based; conditions: read-out: Drug uptake
[26] = Tmax in Sprague-Dawley rat at 20 mg/kg, po measured upto 1440 mins by LC-MS/MS analysis; format: ADME, organism-based; conditions: in vivo
[27] = system: Mus musculus; assay: Effect on total duration of immobility in C57BL/6N mouse at 10 mg/kg, po treated for 14 days by tail suspension test; format: functional, organism-based; conditions: time 14.0 day
[28] = Metabolic stability in rat hepatocytes assessed as intrinsic clearance; format: ADME, cell-based, Hepatocyte; conditions: read-out: CLH
[29] = Half life in Sprague-Dawley rat at 50 mg/kg, po measured upto 1440 mins by LC-MS/MS analysis; format: ADME, organism-based; conditions: in vivo
[30] = MRT (0 to last) in Sprague-Dawley rat at 10 mg/kg, iv measured upto 1440 mins by LC-MS/MS analysis; format: ADME, organism-based; conditions: in vivo
[31] = Drug uptake in Sprague-Dawley rat brain at 20 mg/kg, po measured at 0.5 hrs by LC-MS/MS analysis; format: ADME, organism-based; conditions: in vivo, BLD = below limit of detection
[32] = Mutagenicity in Salmonella typhimurium TA100 in presence or absence of rat liver S9 fraction by Ames test; format: toxicity; conditions: salmonella enterica subsp. enterica serovar typhimurium
[33] = AUC (0 to last) in Sprague-Dawley rat at 50 mg/kg, po measured upto 1440 mins by LC-MS/MS analysis; format: ADME, organism-based; design: dose 50 mg/kg, time < 1440 min, route po; conditions: in vivo
[34] = AUC (0 to last) in Sprague-Dawley rat at 10 mg/kg, iv measured upto 1440 mins by LC-MS/MS analysis; format: ADME, organism-based; design: time < 1440 min, dose 10 mg/kg, route iv; conditions: in vivo
[35] = Plasma concentration in Sprague-Dawley rat at 50 mg/kg, po measured at 0.5 hrs by LC-MS/MS analysis; format: ADME, organism-based
[36] = Toxicity in C57BL/6N mouse subcutaneously transplanted with mouse MC-38 cells assessed as general toxic effects at 50 mg/kg, po bid measured on day 20; format: organism-based; conditions: in vivo, sc, 480 h, time 20 day

**Q.** For `CCn1c(=O)[nH]c(=O)c2c1nc(Cc1cn3cc(C)sc3n1)n2CC1COC1`, which Activity [1] is on record?
**A.** Its Activity is “inactive”.

**Q.** What about the inhibition in vivo at 50 mg/kg [2] of the same compound?
**A.** The inhibition in vivo at 50 mg/kg was 50%.

**Q.** And the IC50 [3]?
**A.** Its IC50 is greater than 100000 nM.

**Q.** What about the Activity [4] of the same compound?
**A.** The Activity was “inactive”.

**Q.** And the Kd [5]?
**A.** The Kd was 3.2 nM.

**Q.** What about the MRT inf [6] of the same compound?
**A.** Its MRT inf is 3.14 h.

**Q.** And the Tlast [7]?
**A.** The Tlast was 24 h.

**Q.** And the Cmax [8]?
**A.** The Cmax was 4100 ng/mL.

**Q.** What about the concentration at 2 h [9] of the same compound?
**A.** The concentration at 2 h was 18 ng/g.

**Q.** And the Activity [10]?
**A.** The Activity was “inactive”.

**Q.** And the inhibition in vivo at 15 mg/kg [11]?
**A.** The inhibition in vivo at 15 mg/kg was 50%.

**Q.** And the Ka [12]?
**A.** The Ka was 2.29 10^6/M/s.

**Q.** What about the Activity [13] of the same compound?
**A.** The Activity was 72%.

**Q.** And the Tlast [14]?
**A.** The Tlast was 12 h.

**Q.** And the AUMC [15]?
**A.** Its AUMC is 8.44%.

**Q.** And the Activity [16]?
**A.** The Activity was “inactive”.

**Q.** What about the “%AUCextra” value [17] of the same compound?
**A.** The value was 0.44%.

**Q.** And the concentration at 2 h [18]?
**A.** Its concentration at 2 h is 1610 ng/mL.

**Q.** And the Papp B→A at 5 µM [19]?
**A.** The Papp B→A at 5 µM was 23 ×10⁻⁶ cm/s.

**Q.** What about the bioavailability [20] of the same compound?
**A.** The bioavailability was 32.7%.

**Q.** And the AUC(0-inf) [21]?
**A.** Its AUC(0-inf) is 8220 ng·h/mL.

**Q.** What about the fraction unbound [22] of the same compound?
**A.** Its fraction unbound is 0.52.

**Q.** What about the MRT inf [23] of the same compound?
**A.** The MRT inf was 1.65 h.

**Q.** And the Papp B→A at 5 µM [24]?
**A.** Its Papp B→A at 5 µM is 15 ×10⁻⁶ cm/s.

**Q.** And the concentration at 0.5 h [25]?
**A.** The concentration at 0.5 h was 53 ng/g.

**Q.** What about the Tmax [26] of the same compound?
**A.** The Tmax was 0.42 h.

**Q.** And the Activity [27]?
**A.** Its Activity is “inactive”.

**Q.** And the CLint scaled [28]?
**A.** Its CLint scaled is less than 17 mL/min/kg.

**Q.** And the half-life [29]?
**A.** Its half-life is 3.41 h.

**Q.** What about the MRT last at 24 h [30] of the same compound?
**A.** The MRT last at 24 h was 0.61 h.

**Q.** And the Drug uptake [31]?
**A.** Its Drug uptake is “Bld”.

**Q.** And the Activity [32]?
**A.** Its Activity is “Non-Toxic”.

**Q.** What about the AUC(0-t) at 24 h [33] of the same compound?
**A.** The AUC(0-t) at 24 h was 8180 ng·h/mL.

**Q.** And the AUC(0-t) at 24 h [34]?
**A.** Its AUC(0-t) at 24 h is 5000 ng·h/mL.

**Q.** What about the concentration at 0.5 h [35] of the same compound?
**A.** The concentration at 0.5 h was 5950 ng/mL.

**Q.** What about the Activity [36] of the same compound?
**A.** The Activity was “Non-Toxic”.
